US10413583B2, “Synthetic substrates for enzymes that catalyze reactions of modified cysteines and related methods” (The University of Chicago, priority 2016, dated 2019)

Key:
HEPG2 cells [1] = experiment: Fluorescence imaging of RDP-1 with HEPG2 cells (PalmB, palmitate); format: cell-based, human; conditions: palmitate pretreatment for 6 hours
Description: HEPG2 were plated with […] of DMEM (Gibco, Gaithersburg, Md., United States of America; High Glucose, Glutamax, 10% FBS) a four well chambered imaging dish (D35C4-20-1.5-N, Cellvis, Mountain View, Calif., United States of America) which were precoated with 4 μg Poly-D-lysine (30-70 KDa, Alfa Aesar, Haverhill, Mass., United States of America) for 2 h at room temperature or overnight at 4° C. and grown to ca. 80% confluence prior to imaging. 30 min before the addition of the RDP, the cell culture media was removed and cells were washed with 500 μL of serum-free DMEM (Gibco, Gaithersburg, Md., United States of America; High Glucose, Glutamax, no FBS). The media was then replaced with 500 μL of serum-free DMEM containing 100 nM Mitotracker Deep Red (Thermo Fisher Scientific, Waltham, Mass., United States of America) to assist in focusing and processing) and either 0.1% DMSO carrier as a control or Palm B in DMSO and incubated for 30 min at 37° C. and 5% CO2. The media was removed, the cells were washed with 500 μL of Live Cell Imaging Solution (Thermo Fisher Scientific, Waltham, Mass., United States of America), and 500 μL of 1 μM RDP-1 along with the Palm B or DMSO as control in Live Cell Imaging Solution was added to each well. […]

HEPG2 cells [2] = experiment: Epifluorescent imaging of DPP-5 and diacetyl rhodol in HepG2 cells (PalmB, ML348, ML349, palmitate); format: cell-based, human; conditions: 1 mM palmitate for 6 hours post-starvation
Description: 250,000 HEK293T cells/well, 120,000 HeLa cells/well, or 100,000 HepG2 cells/well were plated in 700 μL DMEM glutamax (10% FBS+1% P/S) into 4-well chambered imaging dish (D35C4-20-1.5-N, Cellvis, Mountain View, Calif., United States of America), which were precoated with 5 μg Poly-D-lysine (30-70 KDa, Alfa Aesar, Haverhill, Mass., United States of America) for 2 h. After 20-24 h, the media was replaced by 1 μM Hoechst 33342 and DMSO/5 μM PalmB in 400 μL DMEM glutamax. After 30 min of incubation at 37° C., the cells were washed with 400 μL of Live Cell Imaging Solution and replaced by 1 μM DPP-5 with DMSO or 5 μM of PalmB in Live Cell Imaging Solution. After 20 min of incubation at 37° C., images were obtained on an inverted epifluorescence microscope (Olympus IX83; Olympus Corporation, Tokyo, Japan) attached with EMCCD camera (Photometrics EVOLVE™ Delta, Photometrics, Tucson, Ariz., United States of America) with 40× oil objective (N/A 1.3) for DPP-5 (excitation filter 500/20, dichroic chroma 89007, emission filter 535/30), Hoechst 33342 (excitation filter 402/15, emission filter 455/50, dichroic chroma 89013), and brightfield. Analyses were performed in ImageJ. For data analysis, the average fluorescence intensity per image in each experimental condition was obtained by selecting ROI in Brightfield and applying that to the corresponding DPP-5 image, average background fluorescence intensity was subtracted and data was normalized to the average fluorescence intensity of the DMSO control. Each experiment was repeated in at least two biological replicates with identical results.
16,000 HepG2 cells/well were plated in 100 μL DMEM glutamax (10% fetal bovine serum (FBS)) into 4 wells of a 96-well chambered imaging dish (P96-1-N, Cellvis, Mountain View Calif., United States of America), which were precoated with 0.7 μg Poly-D-lysine (30-70 KDa, Alfa Aesar, Haverhill, Mass., United States of America) for 2 hrs. After 24 h, cells were washed with Live Cell Imaging Solution and replaced by 1 μM Hoechst 33342 and DMSO/10 μM ML348/10 μM ML349/10 μM of both ML348 and ML349 in 100 μL DMEM glutamax. After 30 min of incubation at 37° C., the cells were washed with 100 μL of Live Cell Imaging Solution and replaced by 1 μM DPP-5 in Live Cell Imaging Solution. After 20 min of incubation at 37° C., images were obtained on an inverted epifluorescence microscope (Leica DMi8; Leica Microsystems, Wetzlar, Germany) equipped with a camera (Hamamatsu Orca-Flash 4.0; Hamamatsu, Hamamatsu City, Japan) with 63× oil objective (N/A 1.4) and light source (Sutter Lamda XL, 300 W Xenon; Sutter Instrument, Novato, Calif., United States of America) for DPP-5 (YFP filter cube 1525306), Hoechst 33342 (DAPI filter cube), and brightfield using Leica LASX software (Leica Microsystems, Wetzlar, Germany). Analyses were performed in ImageJ. Each experiment was repeated in three biological replicates and 8-12 images were considered for plotting bar graphs for quantification. For detailed data analysis, the average fluorescence intensity per image in each experimental condition was obtained by selecting ROI in Brightfield and applying that to the corresponding DPP-5 image, average background fluorescence intensity was subtracted and data was normalized to the average fluorescence intensity of the control experiment. […] 250,000 HEK293T cells/well were plated in 700 μL DMEM glutamax (10% FBS+1% P/S) into three wells of a 4-well chambered imaging dish (D35C4-20-1.5-N, Cellvis, Mountain View, Calif., United States of America), which were precoated with 5 μg Poly-Dlysine (30-70 KDa, Alfa Aesar, Haverhill, Mass., United States of America) for 2 h. After 18 h, the media was replaced by 1 μM Hoechst 33342 in 400 μL DMEM glutamax. […] After 20 min of incubation at 37° C., images were obtained and analyzed as described above. […]

For `CCCCCCCCCCCCCCCC(=O)[O-].[Na+]` [palmitate, sodium palmitate], the “effect on APT activity as measured by RDP-1” value (HEPG2 cells [1]) was “a decrease in APT activity” and the “increase in intensity of S-depalmitoylase signal as measured by DPP-5” value (HEPG2 cells [2]) was about 50%.
